Data on 6 molecules can be found in patent EP4741420A1, “PHARMACEUTICAL COMPOSITION FOR PREVENTING OR TREATING OBESITY COMPRISING GLP ANALOGUE AS ACTIVE INGREDIENT” (priority 2023, dated 2025).

Where two headings read alike, the source gives them in different places. Numbered stars: 1 amine (or outer) side, 2 acyl side, 3 side chain; on linkers, the order of the positions; unused ones are H or OH. Side chains are listed from the residue outwards. Ends that are not written are not given here. Peptide text beside a SMILES is read from it. * marks the point of attachment. mPEG 3.4 kDa = 3.4 kDa maleimidated PEG on Cys; C18 diacid = O=C(O)CCCCCCCCCCCCCCCCC(=O)*; γGlu = O=C(O)[C@H](CCC(=O)[*:2])N[*:1]; Palmitoyl = CCCCCCCCCCCCCCCC(=O)*

Series [1] can be described thus: Mouse PK after single subcutaneous administration, LC-MS/MS of plasma. In kind it is in vivo, mice. Particulars: for Tmax / half-life / AUC(0-t) / Cmax: mouse, in vivo, sc; for Cmax: read-out: Cmax. As for the experimental part:
Each of the experimental groups and the control was subcutaneously administered once to the dorsal area of a total of 12 mice using a 1 mL syringe equipped with a 26-gauge needle at a dose of 0.2 mg/5 mL/kg. After drug administration, approximately 0.04 to 0.05 mL of blood was collected per individual at the time scheduled for the orbital vein (4 mice were alternately sampled), and the blood collection times were 1, 2, 4, 8, 24 ,32 ,48, 56, 72, 96, and 120 hours. All plasma samples were analyzed using a self-developed LC-MS/MS assay. Pharmacokinetic analysis of blood drugs was performed using non-compartmental analysis, and analysis of pharmacokinetic parameters was performed using Phoenix WinNolin 64 (Version. 8.3.5 340).

The target of series [2] is GLP-1R (on GLP-1R/CHO cells, DiscoverX 95-0062C2) (UniProt P43220 24-463). Nature of the series: cell-based or functional assay.
The mark [3] stands for this setting: 0.2 mg/kg, C57BL/6N male mice, single subcutaneous dose 0.2 mg/5 mL/kg, plasma.
Where [4] appears, read: 0.2 mg/kg, C57BL/6N male mice, single subcutaneous dose 0.2 mg/5 mL/kg, plasma, read-out: T1/2 (converted).
[5] abbreviates: 0.2 mg/kg, C57BL/6N male mice, single subcutaneous dose 0.2 mg/5 mL/kg, plasma, read-out: Tmax.

Sequence of GLP-1R (on GLP-1R/CHO cells, DiscoverX 95-0062C2) (P43220 24-463 limits assumed): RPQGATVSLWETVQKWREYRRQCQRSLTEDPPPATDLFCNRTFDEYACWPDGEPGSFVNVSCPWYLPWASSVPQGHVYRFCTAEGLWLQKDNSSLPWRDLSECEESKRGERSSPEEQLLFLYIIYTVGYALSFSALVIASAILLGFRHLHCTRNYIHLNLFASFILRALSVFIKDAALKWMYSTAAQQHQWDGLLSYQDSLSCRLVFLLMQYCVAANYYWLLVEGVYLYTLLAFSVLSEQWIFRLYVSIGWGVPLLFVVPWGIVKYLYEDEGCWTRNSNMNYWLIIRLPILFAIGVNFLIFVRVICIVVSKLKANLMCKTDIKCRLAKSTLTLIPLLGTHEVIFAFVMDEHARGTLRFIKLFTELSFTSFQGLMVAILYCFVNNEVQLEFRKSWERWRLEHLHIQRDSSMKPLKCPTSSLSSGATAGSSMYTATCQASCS

`CC[C@H](C)[C@H](NC(=O)[C@H](Cc1ccccc1)NC(=O)[C@H](CC(=O)O)NC(=O)[C@H](CCCNC(=N)N)NC(=O)[C@H](C)NC(=O)[C@H](C)NC(=O)[C@H](CC(C)C)NC(=O)[C@H](C)NC(=O)[C@H](CC(=O)O)NC(=O)[C@H](CC(C)C)NC(=O)[C@H](Cc1ccc(O)cc1)NC(=O)[C@@H](NC(=O)[C@H](CO)NC(=O)[C@H](CC(C)C)NC(=O)[C@H](CC(=O)O)NC(=O)[C@H](CO)NC(=O)[C@@H](NC(=O)[C@H](Cc1ccccc1)NC(=O)[C@@H](NC(=O)CNC(=O)[C@H](CCC(=O)O)NC(=O)CNC(=O)[C@@H](N)Cc1c[nH]cn1)[C@@H](C)O)[C@@H](C)O)[C@@H](C)O)C(=O)N[C@@H](CC(N)=O)C(=O)N[C@@H](Cc1c[nH]c2ccccc12)C(=O)N[C@@H](CC(C)C)C(=O)N[C@H](C(=O)N[C@@H](CCC(N)=O)C(=O)N[C@H](C(=O)N[C@@H](CCCCN)C(=O)N[C@H](C(=O)N[C@H](C(=O)N[C@@H](CC(=O)O)C(=O)N[C@@H](CCCCN)C(=O)N[C@@H](CCCCNC(=O)CC[C@H](NC(=O)CCCCCCCCCCCCCCCCC(=O)O)C(=O)O)C(=O)O)[C@@H](C)O)[C@@H](C)CC)[C@@H](C)O)[C@@H](C)CC` [HU020M1] (HELM PEPTIDE1{H.G.E.G.T.F.T.S.D.L.S.T.Y.L.D.A.L.A.A.R.D.F.I.N.W.L.I.Q.T.K.I.T.D.K.K}|PEPTIDE2{[O=C(O)CCCCCCCCCCCCCCCCC(=O)[*:2]].[gGlu]}$PEPTIDE1,PEPTIDE2,35:R3-2:R2$$$V2.0): in series [1] (male, C57BL/6N), the Tmax came out at 12 h and the half-life was 13.8 h.
For the molecule `CCCCCCCCCCCCCCCC(=O)N[C@@H](CCC(=O)NCCCC[C@H](NC(=O)[C@H](CCCCN)NC(=O)[C@H](CC(=O)O)NC(=O)[C@@H](NC(=O)[C@@H](NC(=O)[C@H](CCCCN)NC(=O)[C@@H](NC(=O)[C@H](CCC(N)=O)NC(=O)[C@@H](NC(=O)[C@H](CC(C)C)NC(=O)[C@H](Cc1c[nH]c2ccccc12)NC(=O)[C@H](CC(N)=O)NC(=O)[C@@H](NC(=O)[C@H](Cc1ccccc1)NC(=O)[C@H](CC(=O)O)NC(=O)[C@H](CCCNC(=N)N)NC(=O)[C@H](C)NC(=O)[C@H](C)NC(=O)[C@H](CC(C)C)NC(=O)[C@H](C)NC(=O)[C@H](CC(=O)O)NC(=O)[C@H](CC(C)C)NC(=O)[C@H](Cc1ccc(O)cc1)NC(=O)[C@@H](NC(=O)[C@H](CO)NC(=O)[C@H](CC(C)C)NC(=O)[C@H](CC(=O)O)NC(=O)[C@H](CO)NC(=O)[C@@H](NC(=O)[C@H](Cc1ccccc1)NC(=O)[C@@H](NC(=O)CNC(=O)[C@H](CCC(=O)O)NC(=O)C(C)(C)NC(=O)[C@@H](N)Cc1c[nH]cn1)[C@@H](C)O)[C@@H](C)O)[C@@H](C)O)[C@@H](C)CC)[C@@H](C)CC)[C@@H](C)O)[C@@H](C)CC)[C@@H](C)O)C(=O)O)C(=O)O` [HU020M3] (HELM PEPTIDE1{H.[Aib].E.G.T.F.T.S.D.L.S.T.Y.L.D.A.L.A.A.R.D.F.I.N.W.L.I.Q.T.K.I.T.D.K.K}|PEPTIDE2{[CCCCCCCCCCCCCCCC(=O)[*:2]].[gGlu]}$PEPTIDE1,PEPTIDE2,35:R3-2:R2$$$V2.0), in series [1] (setting [3]), the area under the curve AUC(0-t) came out at 5070 ng·h/mL and the Cmax stood at 315 ng/mL. Besides, the half-life in series [1] (setting [4]) was 7 h. For the same molecule, in series [1] (setting [5]), the Tmax is 12 h.
With `CC[C@H](C)[C@H](NC(=O)[C@H](Cc1ccccc1)NC(=O)[C@H](CC(=O)O)NC(=O)[C@H](CCCNC(=N)N)NC(=O)[C@H](C)NC(=O)[C@H](C)NC(=O)[C@H](CC(C)C)NC(=O)[C@H](C)NC(=O)[C@H](CC(=O)O)NC(=O)[C@H](CC(C)C)NC(=O)[C@H](Cc1ccc(O)cc1)NC(=O)[C@@H](NC(=O)[C@H](CO)NC(=O)[C@H](CC(C)C)NC(=O)[C@H](CC(=O)O)NC(=O)[C@H](CO)NC(=O)[C@@H](NC(=O)[C@H](Cc1ccccc1)NC(=O)[C@@H](NC(=O)CNC(=O)[C@H](CCC(=O)O)NC(=O)C(C)(C)NC(=O)[C@@H](N)Cc1c[nH]cn1)[C@@H](C)O)[C@@H](C)O)[C@@H](C)O)C(=O)N[C@@H](CC(N)=O)C(=O)N[C@@H](Cc1c[nH]c2ccccc12)C(=O)N[C@@H](CC(C)C)C(=O)N[C@H](C(=O)N[C@@H](CCC(N)=O)C(=O)N[C@H](C(=O)N[C@@H](CCCCN)C(=O)N[C@H](C(=O)N[C@H](C(=O)N[C@@H](CC(=O)O)C(=O)N[C@@H](CCCCN)C(=O)N[C@@H](CCCCNC(=O)CC[C@H](NC(=O)CCCCCCCCCCCCCCCCC(=O)O)C(=O)O)C(=O)O)[C@@H](C)O)[C@@H](C)CC)[C@@H](C)O)[C@@H](C)CC` [HU020M4] (HELM PEPTIDE1{H.[Aib].E.G.T.F.T.S.D.L.S.T.Y.L.D.A.L.A.A.R.D.F.I.N.W.L.I.Q.T.K.I.T.D.K.K}|PEPTIDE2{[O=C(O)CCCCCCCCCCCCCCCCC(=O)[*:2]].[gGlu]}$PEPTIDE1,PEPTIDE2,35:R3-2:R2$$$V2.0), the “half-life longer than that of semaglutide” value in series [1] (mouse PK, relative to semaglutide) stood at 1.5 fold. Further, in series [1] (setting [3]), the AUC(0-t) amounted to 23800 ng·h/mL and the Cmax came to 810 ng/mL. Also, the half-life in series [1] (setting [4]) was 10.7 h. Also, the time to peak (Tmax) in series [1] (setting [5]) worked out at 8 h.
For `CC[C@H](C)[C@H](NC(=O)[C@H](Cc1ccccc1)NC(=O)[C@H](CC(=O)O)NC(=O)[C@H](CCCNC(=N)N)NC(=O)[C@H](C)NC(=O)[C@H](C)NC(=O)[C@H](CC(C)C)NC(=O)[C@H](C)NC(=O)[C@H](CC(=O)O)NC(=O)[C@H](CC(C)C)NC(=O)[C@H](Cc1ccc(O)cc1)NC(=O)[C@@H](NC(=O)[C@H](CO)NC(=O)[C@H](CC(C)C)NC(=O)[C@H](CC(=O)O)NC(=O)[C@H](CO)NC(=O)[C@@H](NC(=O)[C@H](Cc1ccccc1)NC(=O)[C@@H](NC(=O)CNC(=O)[C@H](CCC(=O)O)NC(=O)C(C)(C)NC(=O)[C@@H](N)Cc1c[nH]cn1)[C@@H](C)O)[C@@H](C)O)[C@@H](C)O)C(=O)N[C@@H](CC(N)=O)C(=O)N[C@@H](Cc1c[nH]c2ccccc12)C(=O)N[C@@H](CC(C)C)C(=O)N[C@H](C(=O)N[C@@H](CCC(N)=O)C(=O)N[C@H](C(=O)N[C@@H](CCCCN)C(=O)N[C@H](C(=O)N[C@H](C(=O)N[C@@H](CC(=O)O)C(=O)N[C@@H](CCCCN)C(=O)N[C@@H](CCCCNC(=O)CC[C@H](NC(=O)CCCCCCCCCCCCCCCCCCC(=O)O)C(=O)O)C(=O)O)[C@@H](C)O)[C@@H](C)CC)[C@@H](C)O)[C@@H](C)CC` [HU020M5] (HELM PEPTIDE1{H.[Aib].E.G.T.F.T.S.D.L.S.T.Y.L.D.A.L.A.A.R.D.F.I.N.W.L.I.Q.T.K.I.T.D.K.K}|PEPTIDE2{[O=C(O)CCCCCCCCCCCCCCCCCCC(=O)[*:2]].[gGlu]}$PEPTIDE1,PEPTIDE2,35:R3-2:R2$$$V2.0), in series [1] (setting [3]), the AUC(0-t) came to 20500 ng·h/mL and the Cmax stood at 661 ng/mL. In series [1] (setting [4]), the half-life was 15.2 h. Further, in series [1] (setting [5]), the Tmax came to 8 h.
For HGEGTFTSDLSTYLDALAAC(mPEG 3.4 kDa)DFINWLIQTKITDKK([γGlu-Palmitoyl]) [HU020M6], in series [2], the “GLP-1 activity (EC50, pM)” value was 45.7 pM and the “GLP-1 activity, Compared to GLP-1 (Exendin-4)” value stood at 15.5%.
For HGEGTFTSDLSTYLDALAARDFINWLIQTKITDKK([γGlu-C18 diacid]) [HU020M1] the same measures were 113 pM and 6.3%.
